# Measurements from patent publication US20140163082A1, “PYRAZOLYL COMPOUNDS FOR USE IN REVERSING REACTIVE GLIOSIS” (priority 2011, published 2014).
# Tests used:
# rMC-1 cells = assay: Viability assay (DAPI exclusion test), rMC-1; settings: rMC-1 cells in culture after incubation
# R28 cells = assay: Viability assay (DAPI exclusion test), R28; settings: R28 cells in culture after incubation
structure (smiles),measurement,setting,value
COc1cccc2c1C(=O)c1c(O)c3c(c(O)c1C2=O)C[C@@](O)(C(=O)CO)C[C@@H]3O[C@H]1C[C@H](N)[C@H](O)[C@H](C)O1 [Doxorubicin],cell viability (DAPI exclusion),rMC-1 cells,significant nonviability staining
same,cell viability (DAPI exclusion),R28 cells,significant nonviability staining
